# Laboratory results: ChEMBL document CHEMBL1154119, “Rational design, synthesis and characterization of potent, non-peptidic Smac mimics/XIAP inhibitors as proapoptotic agents for cancer therapy” (Bioorg Med Chem, 2009)
# Assays:
# HL-60 = experiment: Cytotoxicity against human HL60 cells after 96 hrs by MTT assay; conditions: HL-60, 96 h
# PC-3 = experiment: Cytotoxicity against human PC3 cells after 96 hrs by MTT assay; conditions: PC-3, 96 h
# [1] = Metabolic stability of compound in phosphate buffer in presence of human CYP3A4 and NADPH; assay type: ADME
# MDA-MB-231 = experiment: cells; conditions: Homo sapiens, MDA-MB-231, 96 h
# Description: Cytotoxicity against human MDA-MB-231 cells after 96 hrs by MTT assay
# [2] = biological target: T1, E3 ubiquitin-protein ligase XIAP (Homo sapiens, UniProt P98170)
# Description: Binding affinity to human recombinant XIAP linker BIR2-BIR3 expressed in Escherichia coli BL21 by fluorescence polarization assay
# [3] = Solubility at pH 7.4; assay type: physicochemical; conditions: buffer
# [4] = Solubility at pH 3; assay type: physicochemical; conditions: buffer
# [5] = biological target: T1, E3 ubiquitin-protein ligase XIAP; remark: listed apart in the source
# Description: Binding affinity to human recombinant XIAP BIR3 domain expressed in Escherichia coli BL21 by fluorescence polarization assay
# T1 sequence (P98170 whole entry): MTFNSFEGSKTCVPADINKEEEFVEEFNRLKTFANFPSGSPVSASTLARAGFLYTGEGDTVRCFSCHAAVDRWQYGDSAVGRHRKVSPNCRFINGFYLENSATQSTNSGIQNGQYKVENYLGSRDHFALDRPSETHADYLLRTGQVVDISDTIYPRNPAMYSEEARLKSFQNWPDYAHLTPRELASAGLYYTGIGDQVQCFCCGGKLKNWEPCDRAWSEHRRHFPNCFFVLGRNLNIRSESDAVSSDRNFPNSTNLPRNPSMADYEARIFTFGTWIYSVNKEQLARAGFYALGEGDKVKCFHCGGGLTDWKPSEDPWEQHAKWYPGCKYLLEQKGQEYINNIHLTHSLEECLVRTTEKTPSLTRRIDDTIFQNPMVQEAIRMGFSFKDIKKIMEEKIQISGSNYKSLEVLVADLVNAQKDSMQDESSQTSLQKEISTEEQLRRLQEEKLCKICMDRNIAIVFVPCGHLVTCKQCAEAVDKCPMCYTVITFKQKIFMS
SMILES,IC50 (HL-60) [µM],IC50 (PC-3) [µM],Stability [1] [%],IC50 (MDA-MB-231) [µM],IC50 [2] [µM],solubility [3],solubility [4],IC50 [5] [µM]
CC[C@H](NC)C(=O)N[C@H]1CCC[C@H]2CC[C@@H](C(=O)NC(c3ccccc3)c3ccccc3)N2C1=O,20.2,56.9,83,0.146,,,,
CC[C@H](N)C(=O)N[C@H]1CCC[C@H]2CC[C@@H](C(=O)NC(c3ccccc3)c3ccccc3)N2C1=O,24.5,> 100,87,> 100,,,,
CC[C@H](NC)C(=O)N[C@@H]1C(=O)N2[C@@H](CC[C@@H]1CO)CC[C@H]2C(=O)NC(c1ccccc1)c1ccccc1,26.1,> 100,86,[…],,,,
CC[C@H](NC)C(=O)N[C@@H]1C(=O)N2[C@@H](CC[C@@H]1CN)CC[C@H]2C(=O)NC(c1ccccc1)c1ccccc1,51.8,51.7,78,0.542,,,,
CC[C@H](N)C(=O)N[C@@H]1C(=O)N2[C@@H](CC[C@@H]1CO)CC[C@H]2C(=O)NC(c1ccccc1)c1ccccc1,6.5,> 100,79,1.03,,,,
CCNCC[C@H]1CC[C@H]2CC[C@@H](C(=O)NC(c3ccccc3)c3ccccc3)N2C(=O)[C@H]1NC(=O)[C@H](CC)NC,76.4,> 100,90,1.3,,,,
CC[C@H](N)C(=O)N[C@@H]1C(=O)N2[C@@H](CC[C@@H]1CCN)CC[C@H]2C(=O)NC(c1ccccc1)c1ccccc1,25,85.2,75,12.9,0.086,,,
CC[C@H](NC)C(=O)N[C@@H]1C(=O)N2[C@@H](CC[C@@H]1CCN)CC[C@H]2C(=O)NC(c1ccccc1)c1ccccc1,31,> 100,86,2.3,,,,
CC[C@H](N)C(=O)N[C@@H]1C(=O)N2[C@@H](CC[C@@H]1CCNC(=O)c1ccccc1)CC[C@H]2C(=O)NC(c1ccccc1)c1ccccc1,50.7,> 100,65,0.93,,,,
CC[C@H](NC)C(=O)N[C@@H]1C(=O)N2[C@@H](CC[C@@H]1CCNC(=O)c1ccccc1)CC[C@H]2C(=O)NC(c1ccccc1)c1ccccc1,32.6,> 100,43,0.21,,,,
CC[C@H](N)C(=O)N[C@@H]1C(=O)N2[C@@H](CC[C@@H]1CCNC(=O)NCc1ccccc1)CC[C@H]2C(=O)NC(c1ccccc1)c1ccccc1,83.3,> 100,65,10.8,,,,
CC[C@H](NC)C(=O)N[C@@H]1C(=O)N2[C@@H](CC[C@@H]1CCNCc1ccccc1)CC[C@H]2C(=O)NC(c1ccccc1)c1ccccc1,5.2,7.8,81,0.141,0.027,Soluble,Soluble,0.11
CC[C@H](NC)C(=O)N[C@@H]1C(=O)N2[C@@H](CC[C@@H]1CCNC(=O)NCc1ccccc1)CC[C@H]2C(=O)NC(c1ccccc1)c1ccccc1,52.2,83.5,51,1.2,,,,
CC[C@H](N)C(=O)N[C@@H]1C(=O)N2[C@@H](CC[C@@H]1CCNCc1ccccc1)CC[C@H]2C(=O)NC(c1ccccc1)c1ccccc1,15.4,39.2,,0.4,,,,
CC[C@H](N)C(=O)N[C@@H]1C(=O)N2[C@@H](CC[C@@H]1CCO)CC[C@H]2C(=O)NC(c1ccccc1)c1ccccc1,> 100,> 100,,1.8,,,,
CC[C@H](NC)C(=O)N[C@@H]1C(=O)N2[C@@H](CC[C@@H]1CCO)CC[C@H]2C(=O)NC(c1ccccc1)c1ccccc1,74.8,> 100,,0.173,,,,
CC[C@H](N)C(=O)N[C@@H]1C(=O)N2[C@@H](CC[C@@H]1CN)CC[C@H]2C(=O)NC(c1ccccc1)c1ccccc1,69.3,> 100,93,6.03,,,,
CCNC[C@H]1CC[C@H]2CC[C@@H](C(=O)NC(c3ccccc3)c3ccccc3)N2C(=O)[C@H]1NC(=O)[C@@H](N)CC,84,> 100,81,0.286,,,,
CCNCC[C@H]1CC[C@H]2CC[C@@H](C(=O)NC(c3ccccc3)c3ccccc3)N2C(=O)[C@H]1NC(=O)[C@@H](N)CC,62.8,> 100,,8,,,,
CC[C@H](N)C(=O)N[C@@H]1C(=O)N2[C@@H](CC[C@@H]1CNC(=O)NCc1ccccc1)CC[C@H]2C(=O)NC(c1ccccc1)c1ccccc1,51,> 100,73,3.4,,,,
CC[C@H](N)C(=O)N[C@@H]1C(=O)N2[C@@H](CC[C@@H]1CNC(=O)c1ccccc1)CC[C@H]2C(=O)NC(c1ccccc1)c1ccccc1,36,80.1,81,,,,,
CC[C@H](N)C(=O)N[C@@H]1C(=O)N2[C@@H](CC[C@@H]1CNCc1ccccc1)CC[C@H]2C(=O)NC(c1ccccc1)c1ccccc1,13.1,24.1,,0.099,,,,
